Consider 4 compounds from patent US7851573B2, “Aqueous polytetrafluoroethylene emulsion, polytetrafluoroethylene fine powder and porous material obtained therefrom” (Asahi Glass Company, Limited, priority 2005, dated 2010).

Each structure is given as a SMILES string.

Data set [1] can be described thus: 1-octanol/water partition coefficient (LogPOW) by HPLC, OECD Test Guideline 117. As to conditions: for LogPOW: HPLC method, ODS column, acetonitrile/0.6 mass % HClO4 aq. 1/1, 40° C., calibration with C7-C10 carboxylic acids; for bioaccumulation potential / accumulation in a living organism: judged from the LogPOW value compared to APFO. The data set is classed as physicochemical. As to the method: In accordance with OECD Test Guideline 117, 1-octanol/water partition coefficient (LogPOW) of a fluorinated emulsifier was measured by using HPLC (high performance liquid chromatography).
Conditions for the measurement were as follows: column: TOSOH ODS-120T column ((φ 4.6 mm×250 mm), eluent: acetonitrile/0.6 mass % of HClO4 aqueous solution=1/1 (vol/vol %), flow rate: 1.0 mL/minute, sample amount: 300 μL, column temperature: 40° C., and detection light: UV 210 nm (WO2005-42593).
HPLC was carried out on standard substances (heptanoic acid, octanoic acid, nonanoic acid and decanoic acid) having known 1-octanol/water partition coefficients, and a calibration curve was prepared from the respective elution times and octanol/water partition coefficients of the respective standard substances. Based on this calibration curve, a value of partition coefficient (LogPOW) between 1-octanol and water was calculated from the elution time by HPLC of the fluorinated emulsifier.
Further, in general, in order to judge whether or not a chemical substance is apt to be accumulated in a living organism, a testing method for measurement of a partition coefficient (LogPOW) between 1-octanol and water, is stipulated. As the testing method, in addition to “Partition Coefficient (1-octanol/water) Shake Flask Method” as stipulated in OECD test guideline 107 and in Japanese Industrial Standards Z 7260-107 (2000), a HPLC method (high-performance liquid chromatography) as stipulated and published in OECD Test Guideline 117, is used. A compound having a large partition coefficient value has a large tendency for bioaccumulation, and a compound having a small value means a small tendency for bioaccumulation. In a case where the LogPOW value is less than 3.5, it is considered proper to judge that it is not a high-concentration, and bioaccumulation is also considered to be small.

The conditions of data set [2]: background art statement, no method given; cited from earlier work.

Compound `N.O=C(O)C(F)(F)C(F)(F)C(F)(F)C(F)(F)C(F)(F)C(F)(F)C(F)(F)F` [CF3(CF2)6COONH4, ammonium perfluorooctanoate] displayed a LogPOW in data set [1] of 3.67. Moreover, in data set [2], the bioaccumulation potential result is recorded as “high”.

As to `N.O=C(O)C(F)(OC(F)(F)C(C(F)(F)F)C(F)(F)C(F)(F)C(F)(F)F)C(F)(F)F` (stereo not shown) [CF3CF2CF2C(CF3)CF2OCF(CF3)COONH4], the bioaccumulation potential entry in data set [2] is on record as “higher bioaccumulation potential than APFO”. As to `N.O=C(O)C(F)(F)OC(F)(F)C(F)(F)OC(F)(F)C(F)(F)F` [CF3CF2OCF2CF2OCF2COONH4], in data set [1], the LogPOW came out at 3.13 and the “bioaccumulation potential / accumulation in a living organism” value is listed as “low”. For the compound `N.O=C(O)C(F)(OC(F)(F)C(F)(OC(F)(F)C(F)(F)F)C(F)(F)F)C(F)(F)F` (stereo not shown) [CF3CF2OCF(CF3)CF2OCF(CF3)COONH4], in data set [1], the LogPOW is listed as 4.03 and the “bioaccumulation potential / accumulation in a living organism” value was “high”.
